ChEMBL document CHEMBL1150031, “The first selective antagonist for a GABAC receptor” (Bioorg Med Chem Lett, 1996)
Calls of active or inactive are those of the source. No cut-off for these calls is given here.

How the values were obtained:
[1] = target: GABA-A receptor; anion channel; assay: Inhibition of mammalian Gamma-aminobutyric acid A (GABA-A) receptor, agonist; type: functional
[2] = target: GABA-B receptor (Homo sapiens) (UniProt Q9UBS5+O75899); assay: Inhibition of mammalian Gamma-aminobutyric acid type B receptor (Inactive); type: protein-complex assay
[3] = target: T1, GABA-C receptor (Homo sapiens) (UniProt P28476+A8MPY1+P24046); assay: Inhibition of mammalian Gamma-aminobutyric acid type C (GABA-C) receptor, partial agonist; type: functional
[4] = target: T1, GABA-C receptor (Homo sapiens); assay: Inhibition of human Gamma-aminobutyric acid type C (GABA-C) receptor, potent antagonist; type: functional
[5] = target: GABA B receptor (Rattus norvegicus, UniProt O88871+Q9Z0U4); assay: Inhibition of rat hippocampal Gamma-aminobutyric acid type B receptor (weak agonist); type: functional, tissue-based, Hippocampus
[6] = Inhibition of rat brain Gamma-aminobutyric acid A (GABA-A) receptor expressed in oocytes, weak antagonist; type: functional; details: Oocyte
[7] = target: T1, GABA-C receptor (Homo sapiens); assay: Inhibition of mammalian Gamma-aminobutyric acid type C (GABA-C) receptor, potent antagonist; type: functional
[8] = target: GABA-A receptor; anion channel (Homo sapiens) (UniProt P14867+P47870+P18507+P28472+P48169+Q99928+Q9UN88+P34903+O00591+O14764+Q8N1C3+P18505+P78334+P47869+P31644+Q16445); assay: Inhibition of mammalian Gamma-aminobutyric acid A (GABA-A) receptor (inactive); type: protein-complex assay

T1 sequence (A8MPY1 whole entry, looked up): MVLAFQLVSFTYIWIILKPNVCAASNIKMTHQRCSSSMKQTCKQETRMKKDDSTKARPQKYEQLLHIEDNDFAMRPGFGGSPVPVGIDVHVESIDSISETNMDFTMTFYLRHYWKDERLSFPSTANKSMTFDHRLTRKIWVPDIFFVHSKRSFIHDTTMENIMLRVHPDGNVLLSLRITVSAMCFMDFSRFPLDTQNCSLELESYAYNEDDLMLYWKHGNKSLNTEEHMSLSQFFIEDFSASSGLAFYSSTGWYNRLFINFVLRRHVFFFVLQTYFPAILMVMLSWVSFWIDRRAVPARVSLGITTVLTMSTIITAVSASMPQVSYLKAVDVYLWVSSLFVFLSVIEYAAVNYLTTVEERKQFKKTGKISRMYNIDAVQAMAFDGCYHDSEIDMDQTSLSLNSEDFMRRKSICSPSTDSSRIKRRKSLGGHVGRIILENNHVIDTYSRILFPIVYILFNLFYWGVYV
T1 sequence (P24046 whole entry, looked up): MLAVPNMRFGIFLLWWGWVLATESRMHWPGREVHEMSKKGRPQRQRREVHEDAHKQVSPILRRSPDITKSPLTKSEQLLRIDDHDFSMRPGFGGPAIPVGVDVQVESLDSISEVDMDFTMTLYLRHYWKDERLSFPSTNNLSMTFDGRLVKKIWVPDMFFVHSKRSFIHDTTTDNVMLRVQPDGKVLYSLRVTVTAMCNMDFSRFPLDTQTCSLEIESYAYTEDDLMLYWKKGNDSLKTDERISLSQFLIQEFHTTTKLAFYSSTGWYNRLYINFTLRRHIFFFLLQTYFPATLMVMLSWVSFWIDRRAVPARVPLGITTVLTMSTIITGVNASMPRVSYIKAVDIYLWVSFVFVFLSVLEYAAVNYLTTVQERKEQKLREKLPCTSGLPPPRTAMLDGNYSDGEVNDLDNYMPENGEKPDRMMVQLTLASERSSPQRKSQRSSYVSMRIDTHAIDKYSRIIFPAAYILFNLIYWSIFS
T1 sequence (P28476 whole entry, looked up): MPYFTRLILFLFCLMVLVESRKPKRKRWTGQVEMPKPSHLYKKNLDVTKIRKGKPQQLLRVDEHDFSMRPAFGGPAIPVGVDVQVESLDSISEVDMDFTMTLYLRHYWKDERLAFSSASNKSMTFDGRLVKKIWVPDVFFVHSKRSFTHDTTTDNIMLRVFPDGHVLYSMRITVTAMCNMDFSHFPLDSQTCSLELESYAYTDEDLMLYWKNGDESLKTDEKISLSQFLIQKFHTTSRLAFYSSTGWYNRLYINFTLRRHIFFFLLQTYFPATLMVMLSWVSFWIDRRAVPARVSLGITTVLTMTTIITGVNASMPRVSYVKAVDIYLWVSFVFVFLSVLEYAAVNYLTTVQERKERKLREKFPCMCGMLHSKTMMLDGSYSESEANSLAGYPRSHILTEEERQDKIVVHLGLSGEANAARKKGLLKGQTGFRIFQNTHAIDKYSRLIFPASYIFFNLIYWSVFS
Sequence of GABA B receptor (Q9Z0U4 whole entry): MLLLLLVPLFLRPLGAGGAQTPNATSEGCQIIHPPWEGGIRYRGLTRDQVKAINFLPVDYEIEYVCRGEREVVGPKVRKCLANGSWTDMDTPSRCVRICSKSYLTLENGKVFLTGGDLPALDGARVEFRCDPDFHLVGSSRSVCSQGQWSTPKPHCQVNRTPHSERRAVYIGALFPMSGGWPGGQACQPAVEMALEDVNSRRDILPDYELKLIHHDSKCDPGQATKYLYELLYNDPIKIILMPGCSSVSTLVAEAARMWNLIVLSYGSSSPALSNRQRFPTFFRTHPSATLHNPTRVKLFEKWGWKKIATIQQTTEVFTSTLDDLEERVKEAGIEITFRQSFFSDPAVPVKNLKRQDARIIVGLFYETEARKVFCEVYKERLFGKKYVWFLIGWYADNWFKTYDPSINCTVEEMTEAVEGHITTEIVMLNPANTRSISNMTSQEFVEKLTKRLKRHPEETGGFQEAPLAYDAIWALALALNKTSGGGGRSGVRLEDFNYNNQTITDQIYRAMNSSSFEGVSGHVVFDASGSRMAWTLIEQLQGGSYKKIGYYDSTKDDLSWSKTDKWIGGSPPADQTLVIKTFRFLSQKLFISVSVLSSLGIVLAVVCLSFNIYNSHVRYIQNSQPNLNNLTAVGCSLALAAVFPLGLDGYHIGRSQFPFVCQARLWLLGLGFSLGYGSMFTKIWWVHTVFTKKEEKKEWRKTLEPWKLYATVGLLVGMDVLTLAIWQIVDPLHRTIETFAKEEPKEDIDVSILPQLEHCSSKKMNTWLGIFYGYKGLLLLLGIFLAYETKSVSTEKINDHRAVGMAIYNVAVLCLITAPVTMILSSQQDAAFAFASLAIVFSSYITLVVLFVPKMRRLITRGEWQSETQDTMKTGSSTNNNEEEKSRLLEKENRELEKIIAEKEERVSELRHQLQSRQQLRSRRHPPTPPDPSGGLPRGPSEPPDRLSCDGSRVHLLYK
Sequence of GABA B receptor (O88871 whole entry): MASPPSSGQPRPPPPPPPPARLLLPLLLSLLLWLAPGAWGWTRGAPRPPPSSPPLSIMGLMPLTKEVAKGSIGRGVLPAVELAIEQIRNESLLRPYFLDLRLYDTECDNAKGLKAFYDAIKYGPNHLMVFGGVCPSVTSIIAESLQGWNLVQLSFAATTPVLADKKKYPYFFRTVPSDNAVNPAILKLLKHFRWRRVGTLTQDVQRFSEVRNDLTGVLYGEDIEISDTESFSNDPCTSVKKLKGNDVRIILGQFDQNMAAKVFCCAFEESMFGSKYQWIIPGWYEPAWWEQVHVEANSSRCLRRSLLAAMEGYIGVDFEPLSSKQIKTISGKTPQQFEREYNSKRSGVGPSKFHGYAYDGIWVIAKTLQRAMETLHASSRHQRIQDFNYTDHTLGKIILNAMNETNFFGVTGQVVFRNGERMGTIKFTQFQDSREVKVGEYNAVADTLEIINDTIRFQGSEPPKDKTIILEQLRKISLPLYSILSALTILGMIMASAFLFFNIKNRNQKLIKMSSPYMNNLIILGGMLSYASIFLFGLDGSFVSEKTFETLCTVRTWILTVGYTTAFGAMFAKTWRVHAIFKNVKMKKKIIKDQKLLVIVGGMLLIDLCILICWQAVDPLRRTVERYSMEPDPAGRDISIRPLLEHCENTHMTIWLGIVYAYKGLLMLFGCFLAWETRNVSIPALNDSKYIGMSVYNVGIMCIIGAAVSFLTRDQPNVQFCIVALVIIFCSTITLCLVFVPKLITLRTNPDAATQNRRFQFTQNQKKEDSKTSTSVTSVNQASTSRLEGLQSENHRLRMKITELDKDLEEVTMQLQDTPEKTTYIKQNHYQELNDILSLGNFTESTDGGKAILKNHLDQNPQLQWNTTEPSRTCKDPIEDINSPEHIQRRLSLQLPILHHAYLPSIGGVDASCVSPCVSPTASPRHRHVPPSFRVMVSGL

In the case of `O=C(O)C1=CCNCC1` [ISOGUVACINE], the EC50 [1] is reported as 310 µM, the Activity [2] is reported as “inactive” and the Kb [3] is reported as 99 µM.

Molecule `CP(=O)(O)C1=CCNCC1` has a Kb [4] of 2.1 µM, an EC50 [5] of 500 µM and a Kb [6] of 320 µM.

For `CP(=O)(O)CCCN`, the Kb [7] was 0.8 µM and the Activity [8] was “inactive”.
